Test results taken from US20260207621A1 (Vividion Therapeutics, Inc., priority 2022, published 2026).

Assays:
KEAP1 C151 = target: T1, KEAP1 C151 (Homo sapiens, UniProt Q14145); assay: Nrf2 TMT measurement: in vitro TE50 for KEAP1 C151 (IA-DTB competition, targeted TMT mass spectrometry) in MDA-MB-468 cell lysate; type: binding; details: in vitro target engagement of KEAP1 C151, targeted TMT, read-out: KEAP1_C151 TE50
T1 construct: treating 500 μg of cell lysate generated from MDA-MB-468 breast cancer cells with DMSO or compound; endogenous in cells; host or cells: MDA-MB-468 breast cancer cell lysate
Procedure: In vitro TE50 values for KEAP_C151 were obtained by treating 500 μg of cell lysate generated from MDA-MB-468 breast cancer cells with DMSO or compound for 1 hour at room temperature followed by the addition of 200 μM IA-DTB (in DMSO) for one hour at room temperature. Samples were then precipitated by the addition of 8× ice cold acetonitrile and incubated at −80° C. for two hours. Protein was then pelleted by centrifugation (4,200 RPM, 45 min, 4° C.). The pelleted material was resuspended in 9M Urea, 50 mM ammonium bicarbonate and proteins were reduced and alkylated by the addition of DTT and iodoacetamide (10 and 30 mM, respectively). Following reduction and alkylation, samples were exchanged into 2M urea (Zeba spin desalting plates, Thermo Fisher) and digested with Trypsin. IA-DTB labeled peptides were isolated with streptavidin agarose resin. Enriched peptides were eluted by the addition of 50% acetonitrile (ACN) 0.1% Formic Acid (FA) and dried in a SpeedVac vacuum concentrator.
Dried peptides were resuspended in 0.2 M EPPS pH 8.5 and treated with 6.5 μL of 11-plex tandem mass tag (TMT) (8.3 μg/μL in dry ACN) for 2 hours at room temperature. Reactions were quenched by the addition of 6.5 μL of 5% Hydroxylamine. Samples were then combined and desalted on a Biotage Evolute express ABN plate (600-0010-PX01).
Targeted TMT. Targeted TMT measurements were collected using an Orbitrap LumosTribrid Mass Spectrometer (Thermo Scientific) coupled to an UltiMate 3000 Series Rapid Separation LC system and autosampler (Thermo Scientific Dionex). Peptides were eluted onto a custom C18 capillary analytical column (75-μm inner diameter fused silica, packed with Acclaim PepMap C18 resin (Thermo Scientific)) using an Acclaim PepMap 100 (Thermo 164535) loading column, and separated at a flow rate of 1.0 μl min−1. Data were acquired using a specific MS3-based TMT method targeting the peptide containing KEAP1 C151 (C(+324.2)[…], +3 charge state) where MS2 peptide fragmentation is triggered upon detection of the peptide precursor ion. Subsequent MS3 analysis was then performed using pre-selected peptide fragment ions that were isolated for fragmentation using synchronous precursor selection. RAW files were converted to MZXML format and searched with the SEQUEST algorithm using the MassPike software package. TMT quantitation was performed with a filter requiring at least ten summed signal-to-noise for control channels. Quantified signals were used for dose response curve-fitting and IC50 calculation using R's drc package.

Nrf2 = Nrf2 antagonism assay: ARE luciferase reporter in KYSE-70 cells; type: cell-based; details: Homo sapiens, KYSE-70, KYSE-70 cells, positive Imax corresponds to Nrf2 antagonism, read-out: KYSE70 Cellular ARE Luciferase Imax (%)
Procedure, shortened: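 KYSE-70 esophageal squamous carcinoma cells carrying Nrf2 W24C (constitutively Nrf2-high) with an ARE-driven luciferase reporter. Loss of luciferase signal reflects Nrf2 antagonism via KEAP1 C151 engagement. IC50 and Imax come from dose-response curves; positive Imax means antagonism.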

T1 sequence (Q14145 whole entry): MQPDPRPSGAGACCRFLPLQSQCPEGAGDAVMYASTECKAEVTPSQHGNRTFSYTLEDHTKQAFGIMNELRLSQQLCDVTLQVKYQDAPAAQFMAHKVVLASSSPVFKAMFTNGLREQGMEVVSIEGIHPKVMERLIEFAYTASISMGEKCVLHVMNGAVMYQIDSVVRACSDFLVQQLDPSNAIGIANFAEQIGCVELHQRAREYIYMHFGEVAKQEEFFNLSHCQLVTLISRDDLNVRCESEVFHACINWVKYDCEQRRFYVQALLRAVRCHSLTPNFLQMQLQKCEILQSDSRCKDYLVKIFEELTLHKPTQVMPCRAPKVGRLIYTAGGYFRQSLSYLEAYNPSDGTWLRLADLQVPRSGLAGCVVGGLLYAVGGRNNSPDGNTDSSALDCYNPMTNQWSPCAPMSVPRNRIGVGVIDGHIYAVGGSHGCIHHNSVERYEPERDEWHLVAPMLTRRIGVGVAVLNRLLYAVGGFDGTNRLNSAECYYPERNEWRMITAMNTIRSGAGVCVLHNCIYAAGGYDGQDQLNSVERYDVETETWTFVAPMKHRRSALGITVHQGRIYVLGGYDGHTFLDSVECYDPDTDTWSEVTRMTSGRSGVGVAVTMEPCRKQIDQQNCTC

Row | Compound | IC50 (KEAP1 C151) | Emax (Nrf2)
1 | C=CC(=O)N1CCOCC1c1cc(Cl)nc(-c2ccn3ccnc3c2)c1 (single isomer, unassigned) [Compound 64, 1-(3-(2-chloro-6-(imidazo[1,2-a]pyridin-7-yl)pyridin-4-yl)morpholino)prop-2-en-1-one] | 1 nM | 75%
2 | C=CC(=O)N1CCOCC1c1cc(Cl)nc(-c2ccc(F)c(C(N)=O)c2)c1 (single isomer, unassigned) [Compound 65, 5-(4-(4-acryloylmorpholin-3-yl)-6-chloropyridin-2-y1)-2-fluorobenzamide] | 24 nM | 88%
3 | C=CC(=O)N1CC(C)(C)OC[C@H]1c1cc(Cl)cc(-c2ncnc(N)n2)c1 (single isomer, unassigned) [Compound 66] | 23 nM | 93%
4 | C=CC(=O)N1CCOCC1c1cc(C#N)cc(-c2ccc(F)c(C(N)=O)c2)c1 (single isomer, unassigned) [Compound 67, 3′-(4-acryloylmorpholin-3-yl)-5′-cyano-4-fluoro-[1,1′-biphenyl]-3-carboxamide] | 19 nM | 73%
5 | C=CC(=O)N1CC(C)(C)OCC1c1cc(Cl)nc(-c2ccc(F)c(C(N)=O)c2)c1 (single isomer, unassigned) [Compound 69, 5-(4-(4-acryloyl-6,6-dimethylmorpholin-3-yl)-6-chloropyridin-2-yl)-2-fluorobenzamide] | 88.4 nM | 82%
6 | C=CC(=O)N1CCOCC1c1cc(Cl)cc(-c2ccc(C(N)=O)cc2)c1 (single isomer, unassigned) [Compound 70, 3′-(4-acryloylmorpholin-3-yl)-5′-chloro-[1,1′-biphenyl]-4-carboxamide] | 54 nM | 81%
7 | C=CC(=O)N1CCOCC1c1cc(Cl)cc(-c2cccc(C(N)=O)c2)c1 (single isomer, unassigned) [Compound 71, 3′-(4-acryloylmorpholin-3-yl)-5′-chloro-[1,1′-biphenyl]-3-carboxamide] | 30 nM | 78%
8 | C=CC(=O)N1CCOCC1c1cc(Cl)cc(-c2cc(F)cc(C(N)=O)c2)c1 (single isomer, unassigned) [Compound 72, 3′-(4-acryloylmorpholin-3-yl)-5′-chloro-5-fluoro-[1,1′-biphenyl]-3-carboxamide] | 27 nM | 80%
9 | C=CC(=O)N1CCOCC1c1cc(Cl)cc(-c2cccc(C(N)=O)c2F)c1 (single isomer, unassigned) [Compound 73, 3′-(4-acryloylmorpholin-3-yl)-5′-chloro-2-fluoro-[1,1′-biphenyl]-3-carboxamide] | 56 nM | 74%
10 | C=CC(=O)N1CCN(C(C)=O)C[C@H]1c1cc(Cl)cc(-c2ncnc(N)n2)c1 (single isomer, unassigned) [Compound 74] | 22 nM | 89%
11 | C=CC(=O)N1CC2(CC2)OCC1c1cc(Cl)cc(-c2ccc(F)c(C(N)=O)c2)c1 (single isomer, unassigned) [Compound 76, 3′-(7-acryloyl-4-oxa-7-azaspiro[2.5]octan-6-yl)-5′-chloro-4-fluoro-[1,1′-biphenyl]-3-carboxamide] | 24 nM | 90%
12 | C=CC(=O)N1CC(C)(C)OCC1c1cc(Cl)nc(-c2ccn3ccnc3c2)c1 (single isomer, unassigned) [Compound 78, 1-(5-(2-chloro-6-(imidazo[1,2-a]pyridin-7-yl)pyridin-4-yl)-2,2-dimethylmorpholino)prop-2-en-1-one] | 18 nM | 78%
13 | C=CC(=O)N1CCN(C(C)=O)C[C@H]1c1cc(Cl)cc(-c2ccc(F)c(C(N)=O)c2)c1 (single isomer, unassigned) [Compound 79] | 18 nM | 85%
14 | C=CC(=O)N1CCN(C(C)=O)C[C@H]1c1cc(Cl)cc(-c2ccnc(N)n2)c1 (single isomer, unassigned) [Compound 81] | 12 nM | 85%
15 | C=CC(=O)N1CCOC[C@H]1c1cc(Cl)cc(-c2ccc3c(c2)C(=O)NC3)c1 (single isomer, unassigned) [Compound 82] | < 10 nM | 77%
16 | C=CC(=O)N1CC2(CC2)OCC1c1cc(Cl)cc(-c2ccnc(C)n2)c1 (single isomer, unassigned) [Compound 83, 1-(6-(3-chloro-5-(2-methylpyrimidin-4-yl)phenyl)-4-oxa-7-azaspiro[2.5]octan-7-yl)prop-2-en-1-one] | 89 nM | 86%
17 | C=CC(=O)N1CC2(CC2)OCC1c1cc(Cl)cc(-c2ccnc(N)n2)c1 (single isomer, unassigned) [Compound 84, 1-(6-(3-(2-aminopyrimidin-4-y1)-5-chlorophenyl)-4-oxa-7-azaspiro[2.5]octan-7-yl)prop-2-en-1-one] | 47 nM | 93%
18 | C=CC(=O)N1CCOCC1c1cc(Cl)cc(-c2cc(C(N)=O)n3ccnc3c2)c1 (single isomer, unassigned) [Compound 85, 7-(3-(4-acryloylmorpholin-3-yl)-5-chlorophenyl)imidazo[1,2-a]pyridine-5-carboxamide] | 36 nM | 89%

Continued, in another order:

Row | IC50 (KEAP1 C151) | Compound | Emax (Nrf2)
19 | 90 nM | C=CC(=O)N1CCOCC1c1cc(Cl)cc(-c2cnc3cncn3c2)c1 (single isomer, unassigned) [Compound 68, 1-(3-(3-chloro-5-(imidazo[1,5-a]pyrimidin-3-yl)phenyl)morpholino)prop-2-en-1-one] | 72%
20 | 86 nM | C=CC(=O)N1CCOCC1c1cc(Cl)cc(-c2nccc(C(N)=O)n2)c1 (single isomer, unassigned) [Compound 77, 2-(3-(4-acryloylmorpholin-3-yl)-5-chlorophenyl)pyrimidine-4-carboxamide] | 82%
21 | 290 nM | C=CC(=O)N1CCOC[C@H]1c1cc(Cl)cc(-c2cc(N)ncn2)c1 (single isomer, unassigned) [Compound 80] | 94%
22 | 7.3 nM | C=CC(=O)N1CCOC[C@H]1c1cc(Cl)cc(-c2cc(OC)ncn2)c1 (single isomer, unassigned) [Compound 86] | 83%
23 | 10 nM | C=CC(=O)N1CCOC[C@H]1c1cc(Cl)cc(-c2nccc(C)n2)c1 (single isomer, unassigned) [Compound 87] | 81%
24 | 14 nM | C=CC(=O)N1CCOC[C@H]1c1cc(Cl)cc(-c2nccc(OC)n2)c1 (single isomer, unassigned) [Compound 88] | 85%
25 | 36 nM | C=CC(=O)N1CCOCC1c1cc(Cl)cc(-c2ccnc(C(N)=O)n2)c1 (single isomer, unassigned) [Compound 89, 4-(3-(4-acryloylmorpholin-3-yl)-5-chlorophenyl)pyrimidine-2-carboxamide] | 73%
26 | 120 nM | C=CC(=O)N1CCOC[C@H]1c1cc(Cl)cc(-c2ccnc(C)c2)c1 (single isomer, unassigned) [Compound 90] | 81%
27 | 11 nM | C=CC(=O)N1CCOC[C@H]1c1cc(Cl)cc(-c2ccnc(OC)c2)c1 (single isomer, unassigned) [Compound 91] | 82%
28 | 23 nM | C=CC(=O)N1CCOC[C@H]1c1cc(Cl)cc(-c2ncc(N)cn2)c1 (single isomer, unassigned) [Compound 92] | 94%
29 | 40 nM | C=CC(=O)N1CCOC[C@H]1c1cc(Cl)cc(-c2nc(C)cc(C)n2)c1 (single isomer, unassigned) [Compound 93] | 91%
